From ChEMBL document CHEMBL4177754, “Targeting Tyrosinase: Development and Structural Insights of Novel Inhibitors Bearing Arylpiperidine and Arylpiperazine Fragments” (J Med Chem, 2018) come the findings set out here.

Active and inactive are the calls of the source. No cut-off for these calls is given here.

One assay addresses T1, Tyrosinase (Agaricus bisporus, UniProt O42713).
T1 sequence (O42713 whole entry): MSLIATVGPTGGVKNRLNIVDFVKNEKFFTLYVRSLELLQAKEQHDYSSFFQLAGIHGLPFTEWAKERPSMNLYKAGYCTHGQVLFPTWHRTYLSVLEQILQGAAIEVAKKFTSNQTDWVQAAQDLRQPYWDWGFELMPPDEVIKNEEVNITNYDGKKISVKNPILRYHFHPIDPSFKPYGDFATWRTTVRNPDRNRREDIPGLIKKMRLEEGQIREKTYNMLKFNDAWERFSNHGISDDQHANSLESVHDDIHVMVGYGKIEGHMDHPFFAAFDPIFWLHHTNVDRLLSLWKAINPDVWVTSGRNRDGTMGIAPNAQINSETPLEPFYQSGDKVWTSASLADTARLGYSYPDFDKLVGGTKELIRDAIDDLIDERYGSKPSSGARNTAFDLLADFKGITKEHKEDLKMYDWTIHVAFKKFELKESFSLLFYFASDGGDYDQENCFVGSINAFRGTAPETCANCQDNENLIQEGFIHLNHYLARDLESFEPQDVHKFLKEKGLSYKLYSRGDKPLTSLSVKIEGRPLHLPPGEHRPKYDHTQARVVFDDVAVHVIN
In words: Inhibition of mushroom tyrosinase diphenolase activity using L-DOPA as substrate preincubated with substrate for 10 mins followed by protein addition measured after 5 mins by spectrophotometric method.
On to `O=C(c1ccccc1O)N1CCN(Cc2ccc(F)cc2)CC1`, for which the IC50 was determined as 7.06 µM.

As to `COc1ccccc1C(=O)N1CCN(Cc2ccc(F)cc2)CC1`, the IC50 is 2.03 µM. `O=C(c1ccc(F)cc1)N1CCN(Cc2ccc(F)cc2)CC1` had an IC50 of 7.77 µM. Same read-out and setting: then `CC(=O)N1CCN(Cc2ccc(F)cc2)CC1`, with 45.9 µM; and `Cc1ccc(C(=O)N2CCN(Cc3ccc(F)cc3)CC2)cc1`, with 33.1 µM. `Fc1ccc(CN2CCNCC2)cc1` registered an IC50 of 85.5 µM. `CCC(=O)N1CCC(Cc2ccc(F)cc2)CC1` displayed an IC50 of 24.1 µM.

Consider `CC(C)C(=O)N1CCN(Cc2ccc(F)cc2)CC1`, for which the IC50 came out at 30.9 µM. Regarding `O=C(c1cccc(F)c1)N1CCN(Cc2ccc(F)cc2)CC1`, the IC50 turned out to be 54.7 µM. Turning to `O=C(c1ccccc1)N1CCN(Cc2ccc(F)cc2)CC1`, the IC50 amounted to 13.3 µM. `CC(C)C(=O)N1CCC(Cc2ccc(F)cc2)CC1` gave an IC50 of 35.3 µM. Same read-out and setting: then `O=C(c1ccc(O)cc1)N1CCN(Cc2ccc(F)cc2)CC1`, with 27.4 µM. Regarding `CC(=O)N1CCC(Cc2ccc(F)cc2)CC1`, inhibition was half-maximal at 25.1 µM (IC50). Compound `COc1cccc(C(=O)N2CCN(Cc3ccc(F)cc3)CC2)c1` gave an IC50 of 27 µM. `O=C(c1cccc(O)c1)N1CCN(Cc2ccc(F)cc2)CC1` returned an IC50 of 12.6 µM. Turning to `O=C(c1ccccc1F)N1CCN(Cc2ccc(F)cc2)CC1`, the IC50 was 3.75 µM. Turning to `COc1ccc(C(=O)N2CCN(Cc3ccc(F)cc3)CC2)cc1`, half-maximal inhibition (IC50) required 9.14 µM. For `CCC(=O)N1CCN(Cc2ccc(F)cc2)CC1`, the midpoint of inhibition, the IC50, lay at 51.1 µM. For `O=C(c1ccccc1)N1CCC(Cc2ccc(F)cc2)CC1`, inhibition was half-maximal at 19.5 µM (IC50). For `Cc1cccc(C(=O)N2CCN(Cc3ccc(F)cc3)CC2)c1`, inhibition was half-maximal at 174 µM (IC50). `Cc1ccccc1C(=O)N1CCN(Cc2ccc(F)cc2)CC1`: the IC50 was found to be 5.25 µM.

A further assay has as its target T2, Tyrosinase (Agaricus bisporus) (UniProt O42713).
T2 sequence (whole entry): T1 sequence (O42713 whole entry)
Put plainly: Non-competitive inhibition of mushroom tyrosinase diphenolase activity at 2 to 8 uM using L-DOPA as substrate preincubated with substrate for 30 mins followed by protein addition measured after 5 mins by Lineweaver-Burk double-reciprocal plot analysis.
For the compound `COc1ccccc1C(=O)N1CCN(Cc2ccc(F)cc2)CC1`, the inhibition entry is “Active”.
